From PMC7504735, “Enhanced Antigiardial Effect of Omeprazole Analog Benzimidazole Compounds” (Molecules, 2020)
pIC50: −log10 of the molar value.

Key:
[1] = molecular target: T1, triosephosphate isomerase (TPI) (Giardia intestinalis, UniProt P36186); test: Inactivation of recombinant TPI enzyme with compounds; type: biochemical; details: for Loss (reduction) of TPI enzyme activity: 500 µM compound, 2 h at 37 °C
T1 construct: His-tag (TEV-cleavable) (cleaved yes); made in house
Procedure: The TPI from G. lamblia was expressed and purified. […] When the culture reached A600 = 0.8, it was induced using 0.4 mM IPTG and incubated overnight at 30 °C with shaking at 180 rpm. After the bacteria were collected by centrifugation (10,000× g, 15 min) and suspended in 40 mL of lysis buffer, pH 8.0 (50 mM Tris, 50 mM NaCl, 5 mM β-mercaptoethanol, and 1 mM phenylmethylsulfonyl fluoride). The bacterial suspension was disrupted by sonication and centrifuged at 9000× g for 1 h at 4 °C. Protein purification was performed by immobilized metal affinity chromatography (IMAC) using a Profinity Ni^2+ charged resin (Bio-Rad) previously reported by Enriquez-Flores et al.. The His-tag sequence was removed from the TIM by incubation with TEVP at a molar ratio of 30:1 (TPI/TEVP) at room temperature for 17 h in digestion buffer, pH 8.0 (50 mM Tris, 0.5 mM ethylene diamine tetraacetic acid (EDTA), and 1 mM dithiothreitol). The enzyme concentration was spectrophotometrically determined at 280 nm, and the enzyme was used immediately.
Enzyme activity of TPI was determined spectrophotometrically as described by monitoring the conversion of glyceraldehyde-3-phosphate (GAP) to dihydroxyacetone phosphate (DHAP). […] The standard reaction mixture contained 1 mM GAP, 0.2 mM NADH, and 0.9 units/mL of α-GDH in TE buffer (100 mM triethanolamine, 10 mM EDTA, pH 7.4). The reaction was initiated by adding 5 ng/mL of TPI to the reaction mixture.
(§1) To determine the inactivation of the TPI enzyme from G. lamblia, we performed inactivation assays of the enzyme in the presence of the synthesized compounds. The compounds’ stock solutions were freshly prepared using 100% dimethyl sulfoxide (DMSO) as the solvent at 25 mM. […] After the incubation period, the enzymatic activity was measured by withdrawing an aliquot of each experimental condition, as described above. The results were expressed in terms of the percentage of activity versus the compound’s concentration.

[2] = molecular target: T1, triosephosphate isomerase (TPI); test: Second-order inactivation constant (k2) of TPI; type: biochemical, Giardia lamblia; details: read-out: Second-order inactivation constant k2
Procedure: Enzyme activity of TPI was determined spectrophotometrically as described by monitoring the conversion of glyceraldehyde-3-phosphate (GAP) to dihydroxyacetone phosphate (DHAP). Briefly, the conversion of GAP to DHAP using a coupling system with enzyme α-glycerol-3-phosphate dehydrogenase (α-GDH) was determinate by measuring NADH oxidation at 340 nm, at 25 °C. The standard reaction mixture contained 1 mM GAP, 0.2 mM NADH, and 0.9 units/mL of α-GDH in TE buffer (100 mM triethanolamine, 10 mM EDTA, pH 7.4). The reaction was initiated by adding 5 ng/mL of TPI to the reaction mixture.
as §1, with “mM. The inactivation assays were performed by incubating 0.2 mg/mL of the TPI enzyme for 2 h at 37 °C in TE buffer with increasing concentrations of the compounds (0 to 500 μM).” for “mM.”
The second-order rate constants of inactivation were calculated by obtaining the pseudo-first-order rate constant (k1) values at each fixed concentration by fitting them to an exponential decay curve. Then, the k1 values were replotted against the concentrations of each compound; the second-order rate constant value of inactivation was obtained from the slope of these plots.

[3] = molecular target: T1, triosephosphate isomerase (TPI); test: Thermal stability of TPI by circular dichroism at 222 nm; details: for Tm of TPI enzyme incubated with compound: compound at its IC50 concentration, 2 h at 37 °C, TPI free of treatment 60.6 °C
Procedure: All spectroscopic assays were carried out at a protein concentration of 0.2 mg/mL. Changes in the secondary structure of proteins were monitored by circular dichroism (CD) in a Jasco-810 spectropolarimeter containing a thermostated Peltier-controlled cell holder. For CD experiments, the enzyme was suspended in 50 mM phosphate buffer (buffer P), pH 7.4, and incubated with the four synthesized compounds by 2 h at 37 °C. Spectral scans from 190 to 280 nm at 0.1 nm intervals were performed at 25 °C using a quartz cell with 0.1 cm path length. All CD data were reported as molar ellipticity. In addition, the thermostability of modified TPI enzyme in the absence or presence of each of the synthesized compounds was evaluated, recording the loss of CD signal at 222 nm during a temperature scan ranging from 25 to 75 °C and an increase of 1 °C/2.5 min. The unfolded fraction of enzyme and melting temperature (Tm) was determined as reported before. The experiments were performed in triplicate.

T1 sequence (P36186 whole entry): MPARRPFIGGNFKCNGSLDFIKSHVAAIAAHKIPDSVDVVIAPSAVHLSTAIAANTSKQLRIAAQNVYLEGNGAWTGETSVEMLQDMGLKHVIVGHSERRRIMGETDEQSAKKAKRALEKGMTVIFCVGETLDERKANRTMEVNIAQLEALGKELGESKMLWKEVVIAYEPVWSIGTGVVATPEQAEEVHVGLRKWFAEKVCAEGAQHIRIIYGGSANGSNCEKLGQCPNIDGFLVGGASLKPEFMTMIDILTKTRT

Compound	Enhancement of TPI inactivation (IC50) with respect to BHO2 [1] [fold]	pIC50 [1]	Loss (reduction) of TPI enzyme activity [1] [%]	kinact/KI [2] [M⁻¹ s⁻¹]	Tm of TPI enzyme incubated with compound [3] [°C]	Loss in thermal stability of TPI ([3]; versus TPI free of treatment) [°C]
Cc1c(OCC(F)(F)F)ccnc1C[S+]([O-])c1nc2ccc([N+](=O)[O-])cc2[nH]1 (stereo not shown) [O2N-BZM9, 2-{[3-methyl-4-(2,2,2-trifluoroethoxy)pyridin-2-yl]methanesulfinyl}-5-nitro-1H-benzimidazole]	3.2	4.70	100	2.8	58.4	
O=[N+]([O-])c1ccc2nc([S+]([O-])Cc3ccccn3)[nH]c2c1 (stereo not shown) [O2N-BZM7, 5-nitro-2-[(pyridin-2-yl)methanesulfinyl]-1H-benzimidazole]	5.3	4.92	100	3.2	57.5	3
COc1c(C)cnc(C[S+]([O-])c2nc3ccccc3[nH]2)c1C (stereo not shown) [H-BZM2, 2-[(4-methoxy-3,5-dimethylpyridin-2-yl)methanesulfinyl]-1H-benzimidazole]		4.43	100	2.3	59.9	
Cc1c(OCC(F)(F)F)ccnc1C[S+]([O-])c1nc2ccccc2[nH]1 (stereo not shown) [Lansoprazole, 2-{[3-methyl-4-(2,2,2-trifluoroethoxy)pyridin-2-yl]methanesulfinyl}-1H-benzimidazole, reference compound]		4.18	100	1.78	60.2	
